Data on one compound can be found in PMC7247319, “The mitochondria-targeted peptide SS-31 binds lipid bilayers and modulates surface electrostatics as a key component of its mechanism of action” (The Journal of Biological Chemistry, 2020).

SMILES strings stand for the structures. Where a SMILES comes first, the peptide text is derived from it. [ ]: non-standard residue; d: D form. Dmt = Cc1cc(O)cc(C)c1C[C@H](N)C(=O)O

Assay [1] concerns LUVs containing 20% TOCL or 20% POPG. The assay is described as follows: ANS fluorescence reporter of surface potential of model membranes. The note with it: increasing [peptide]/[lipid]eff, 20% TOCL or 20% POPG LUVs. As for the experimental part: Figure 3. SS-31 binding and surface electrostatics. A, binding isotherms. Peptide was titrated with LUVs of the indicated composition (20% TOCL, [SS-31] = 7.5 μM and 20% POPG, [SS-31] = 3.8 μM) at 30-nmol total lipid increments in the presence of different concentrations of added KCl. Values shown are means ± S.D. (error bars) (n = 3), and lines show data fits based on Equation S3. […] B and C, effect of SS-31 binding on surface charge. Measurements of ζ (B) and ANS fluorescence (C) are shown as a function of [SS-31]/[lipid]^eff for membranes containing 20% TOCL and 20% POPG as indicated. Values shown are means ± S.D. (error bars) (n = 3).
To continue this analysis, we determined the relationship between SS-31 binding and surface electrostatics by two complementary approaches. […] As an independent technique, we measured the effect of SS-31 on surface electrostatics using 1-anilinonaphthalene-8-sulfonic acid (ANS), a fluorescent reporter whose binding to anionic bilayers increases as the magnitude of the ψs is reduced, measured as an increase in probe emission intensity ([42]) (Fig. 3C and Fig. S9D). […]
Steady-state fluorescence measurements were performed with a Fluorolog 3-22 spectrofluorometer (HORIBA Jobin-Yvon) equipped with photon-counting electronics, double-grating excitation and emission monochromators, automated Glan–Thompson polarizers, and a 450-watt xenon lamp. […]

The subject of assay [2] is LUVs composed of POPC alone or with 20% TOCL, MLCL, or POPG. The experiment in a line: Synchrotron SAXS and 31P solid-state NMR of model membranes. The note with it: highest peptide concentration, [P]/[L]^eff = 1:5; 2 mM total lipid. From the text: Amphipathic molecules such as antimicrobial peptides can induce large structural changes in membranes, including micellization, pore formation, and induction of inverted topologies ([45]). We therefore addressed whether SS-31 induced structural polymorphism within model bilayers using a range of approaches (Fig. 4). […] Similarly, based on ^31P solid-state NMR (ssNMR) measurements, these model membranes yielded line shapes consistent with lamellar bilayers ([47]), and we observed no effect of SS-31 on bilayer structure (Fig. 4B, supporting Results F, and Fig. S10B). […] Thus, these membranes are expected to exist stably in the liquid crystalline lamellar mesophase over all peptide concentrations.
Figure 4. Effects of SS-31 on structural properties of model membranes. […] LUVs composed of 20% anionic lipid (TOCL, MLCL, or POPG) in POPC background were measured in the absence or presence of peptide ([SS-31]/[lipid]^eff = 1:5) as indicated. […] Data and fits in gray show SS-31 fractional saturation (calculated from Fig. 2A, [lipid]^eff = 25 μM). […]
NMR data were recorded at 162 MHz on a Bruker AVANCE III 400-MHz WB spectrometer equipped with an HXY probe tuned for ^1H and ^31P. […] Model membranes (LUVs) were measured at 25 °C (total of 10,240 scans/sample) with a total lipid concentration of 2 mM lipid in the presence of different concentrations of SS-31 (0, 1:500, 1:50, and 1:5 [P]/[L]^eff). […]

With `Cc1cc(O)cc(C)c1C[C@H](NC(=O)[C@H](N)CCCNC(=N)N)C(=O)N[C@@H](CCCCN)C(=O)N[C@@H](Cc1ccccc1)C(N)=O` [SS-31, D-Arg-2′6′-dimethyl-Tyr-Lys-Phe-NH2] (H-[dR][Dmt]KF-NH2), the “effect on ANS-detected surface potential (ψs) of anionic model membranes” value in assay [1] is “saturable ANS-detected reduction in the ψs”. Also, in assay [2], the “effect on bilayer structure / lamellarity (SAXS, 31P ssNMR)” value was “did not cause major topological alterations”.
